Measured values from patent publication US6833372B2, “Non-peptide GnRH agents, Pharmaceutical compositions, and methods for their use” (Pfizer, Inc., priority 2002, dated 2004).
Values after ≈ are worked out from the molar mass of the structure shown. Read-outs that look alike come from different tables or passages of the source.

Columns and labels:
human GnRH receptors = biological target: T1, human GnRH receptors (Homo sapiens, UniProt P30968); assay: Radioligand binding: inhibition of 125I-GnRH-A binding to human GnRH receptor membranes; conditions: HEK 293 cell membranes
T1 construct: expressed in transfected cells; host or cells: HEK 293 cells, stably transfected; membranes
T1 sequence (P30968 1-328): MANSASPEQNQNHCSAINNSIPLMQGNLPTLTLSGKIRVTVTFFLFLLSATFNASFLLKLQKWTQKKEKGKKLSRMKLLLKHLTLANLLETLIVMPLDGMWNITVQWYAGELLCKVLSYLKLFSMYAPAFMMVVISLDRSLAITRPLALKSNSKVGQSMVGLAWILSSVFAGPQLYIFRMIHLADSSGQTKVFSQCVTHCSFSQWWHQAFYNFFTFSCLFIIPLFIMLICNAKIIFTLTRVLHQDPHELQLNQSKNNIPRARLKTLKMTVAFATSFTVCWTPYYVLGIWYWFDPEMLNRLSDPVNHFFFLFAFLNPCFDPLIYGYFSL
Summary of the method: (§1)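 Membranes from rat pituitaries, or HEK 293 cells stably expressing mouse or human receptor, incubated 1 hour at room temperature with ~0.04-0.06 nM radioligand (HEPES pH 7.4, EDTA, MgCl2, BSA) and competitor at 0.1-10,000 nM. Bound ligand collected by GF/C filtration and counted; Ki derived from IC50 by Cheng-Prusoff.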

rat GnRH receptor = biological target: T2, rat GnRH receptor (Rattus norvegicus, UniProt P30969); assay: Radioligand binding: inhibition of 125I-GnRH-A binding to rat GnRH receptor (rat pituitary membranes); conditions: read-out: Ki (nM), Inhibition Binding of 125I-GnRH-A to GnRH Receptors
T2 construct: or rat pituitaries (Pel Freez Biologicals, Rogers, Ark.) were homogenized; tissue Pel Freez Biologicals; host or cells: rat pituitaries (membrane preparation)
T2 sequence (P30969 1-327): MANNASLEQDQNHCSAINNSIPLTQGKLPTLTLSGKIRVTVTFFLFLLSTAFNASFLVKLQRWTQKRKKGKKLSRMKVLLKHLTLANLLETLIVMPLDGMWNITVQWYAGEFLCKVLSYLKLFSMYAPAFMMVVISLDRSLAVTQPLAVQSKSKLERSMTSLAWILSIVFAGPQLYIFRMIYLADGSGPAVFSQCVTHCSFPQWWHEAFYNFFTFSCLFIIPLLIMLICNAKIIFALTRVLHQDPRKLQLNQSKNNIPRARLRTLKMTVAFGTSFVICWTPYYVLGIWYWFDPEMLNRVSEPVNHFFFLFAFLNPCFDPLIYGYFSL
Summary of the method: as §1

[1] = Solubility at pH2 and pH6; type: physicochemical
[2] = In vitro metabolism: disappearance of parent compound in dog liver microsomes; type: in vitro ADME; conditions: 5 uM compound, 30 minutes 37° C.
Procedure: (§2) Human, rat, dog, and monkey liver microsomes were isolated by differential centrifugation. Specimens of human liver were obtained from the International Institute for the Advancement of Medicine (Scranton, Pa.). The disappearance of the parent compound was studied in a mixture containing 5 uM compound, 0.5 mg/ml microsomal protein, and 2 mM NADPH in 50 mM K phosphate buffer, pH 7.4. Samples were incubated for 30 minutes at 37° C. The reaction was terminated by the addition of acetonitrile and compounds analyzed by LC-MS as described above.

[3] = In vitro metabolism: disappearance of parent compound in monkey liver microsomes; type: in vitro ADME; conditions: 5 uM compound, 30 minutes 37° C.
Procedure: as §2

[4] = In vitro metabolism: disappearance of parent compound in human liver microsomes; type: in vitro ADME; conditions: 5 uM compound, 0.5 mg/ml protein, 2 mM NADPH, 30 minutes 37° C.
Procedure: as §2

[5] = In vitro metabolism: disappearance of parent compound in rat liver microsomes (male, female); type: in vitro ADME; conditions: 5 uM compound, 30 minutes 37° C.; for Fem. Rat (FR) % rem. 30′: female rat liver microsomes; for Male Rat (MR) % rem. 30′: male rat liver microsomes
Procedure: as §2

Rat plasma % remain = type: in vitro ADME
[6] = Pharmacokinetics in rats (jugular vein cannula, plasma LC-MS); type: in vivo, Rat; conditions: female rat, 10 mg/kg as 5 mg/ml solution in 10% DMSO, 10% cremophor, 80% saline (footnote 5), 10 mg/kg; for Cmax: read-out: FR Cmax
Procedure: Rats (male or female, 200-225 g) were prepared with indwelling jugular vein cannula as described by Harms et al., Applied Physiol. 36:391-398 (1974), and allowed to recover overnight with free access to the standard vivarium chow and water. […] […] The blood samples were withdrawn at specific times, plasma was immediately separated and compound extracted with ethyl acetate. The samples were analyzed by LC-MS using 30-90% gradient of ACN in 50 mM ammonium acetate.
The pharmacokinetic parameters were calculated using WinNonlin software (Scientific Consulting Inc.). The bioavailability was calculated as AUCp.o./AUCi.v., where AUCp.o. and AUC i.v. are areas under the plasma concentration-time curve after oral and i.v. administration, respectively.

[7] = pH 6, aqueous buffer, pH6, read-out: Solubility μg/ml pH6

| Structure (SMILES) | Ki (human GnRH receptors) [nM] | Ki (rat GnRH receptor) [nM] | solubility [1, 7] [µg/mL] | Dog % rem. 30′ [2] [%] | Monkey % rem. [3] [%] | Human % rem. 30′ [4] [%] | Fem. Rat (FR) % rem. 30′ [5] [%] | Male Rat (MR) % rem. 30′ [5] [%] | Rat plasma % remain (Rat plasma % remain) [%] | FR T1/2 hr [6] [h] | Cmax [6] [nM] | Cmax ([6]; female, rat, plasma, po) [nM] | half-life ([6]; female, rat, plasma, po, read-out: FR T1/2 hr (converted)) [h] | solubility ([1]; pH 2, simulated gastric fluid, pH2, read-out: Solubility μg/ml pH2) [µg/mL] |
| --- | --- | --- | --- | --- | --- | --- | --- | --- | --- | --- | --- | --- | --- | --- |
| COc1nc(NCCCN2CCOCC2)nc(OC)c1NC(=O)c1ccc(Cc2cc3c(cc2C)C(C)(C)CCC3(C)C)o1 [Example B4, 5-(3,5,5,8,8-Pentamethyl-5,6,7,8-tetrahydro-naphthalen-2-ylmethyl)-furan-2-carboxylic Acid [4,6-dimethoxy-2-(3-morpholin-4-yl-propylamino)-pyrimidin-5-yl]-amide] | 0.5 | 0.4 | 2.5 (≈ 4.13 µM) | 26 | 0 | 38 | 100 | 38 | – | – | – | – | – | – |
| COc1nc(NCCCN2CCOCC2)nc(OC)c1NC(=O)c1ccc(Cc2cc3c(cc2C)C(C)(C)OC3(C)C)o1 [Example D3, 5-(1,1,3,3,6-Pentamethyl-1,3-dihydro-isobenzofuran-5-ylmethyl)-furan-2-carboxylic Acid [4,6-dimethoxy-2-(3-morpholin-4-yl-propylamino)-pyrimidin-5-yl]-amide] | 24.5 | 0.4 | – | – | – | – | – | 22 | 100 | 2.3 | 200 | 400 | 1.6 | – |
| COc1nc(NCCNCCN)nc(OC)c1NC(=O)c1ccc(Cc2cc3c(cc2C)C(C)(C)OC3(C)C)o1 [Example D12, N-[2-({2-[(2-aminoethyl)amino]ethyl}amino)-4,6-dimethoxypyrimidin-5-yl]-5-[(1,1,3,3,6-pentamethyl-1,3-dihydro-2-benzofuran-5-yl)methyl]-2-furamide] | 1.2 | 0.8 | > 30 | 59 | 37 | 81 | 80 | 54 | – | – | – | – | – | > 30 |
| COc1nc(NCCN2CCNCC2)nc(OC)c1NC(=O)c1ccc(Cc2cc3c(cc2C)C(C)(C)OC3(C)C)o1 [Example D14, N-{4,6-Dimethoxy-2-[(2-piperazin-1-ylethyl)amino]-pyrimidin-5-yl}-5-[(1,1,3,3,6-pentamethyl-1,3-dihydro-2-benzofuran-5-yl)methyl]-2-furamide] | 3.5 | 0.4 | – | 98 | 63 | 86 | 90 | 78 | – | – | – | – | – | – |
| COc1nc(N(CCCN)CCCN)nc(OC)c1NC(=O)c1ccc(Cc2cc3c(cc2C)C(C)(C)OC3(C)C)o1 [Example D16, N-{2-[Bis(3-aminopropyl)amino]-4,6-dimethoxypyrimidin-5-yl}-5-[(1,1,3,3,6-pentamethyl-1,3-dihydro-2-benzofuran-5-yl)methyl]-2-furamide] | 6.5 | 1.1 | – | 97 | 66 | 76 | 95 | 34 | – | – | – | – | – | – |
| COc1nc(NCCCN2CCN(CCCN)CC2)nc(OC)c1NC(=O)c1ccc(Cc2cc3c(cc2C)C(C)(C)OC3(C)C)o1 [Example D18, N-[2-({3-[4-(3-Aminopropyl)piperazin-1-yl]propyl}amino)-4,6-dimethoxypyrimidin-5-yl}-5-[(1,1,3,3,6-pentamethyl-1,3-dihydro-2-benzofuran-5-yl)methyl]-2-furamide] | 0.97 | 0.3 | – | 84 | 80 | 82 | 97 | 74 | – | – | – | – | – | – |
| COc1nc(N(CCCN2CCCCC2)CCCN2CCCCC2)nc(OC)c1NC(=O)c1ccc(Cc2cc3c(cc2C)C(C)(C)OC3(C)C)o1 [Example D21, N-{2-[Bis(3-piperidin-1-ylpropyl)amino]-4,6-dimethoxypyrimidin-5-yl}-5-[(1,1,3,3,6-pentamethyl-1,3-dihydro-2-benzofuran-5-yl)methyl]-2-furamide] | 3.3 | 1.3 | – | 67 | 85 | 89 | 89 | 87 | – | – | – | – | – | – |
| COc1nc(NCCCN2CCCCC2)nc(OC)c1NC(=O)c1ccc(Cc2cc3c(cc2C)C(C)(C)OC3(C)C)o1 [Example D22, N-(4,6-Dimethoxy-2-{[3-piperidin-1-ylpropyl)amino]-pyrimidin-5-yl}-5-[(1,1,3,3,6-pentamethyl-1,3-dihydro-2-benzofuran-5-yl)methyl]-2-furamide] | 0.96 | 0.3 | – | 87 | 5 | 66 | 94 | 69 | – | – | – | – | – | – |
| COCCOc1nc(OC)c(NC(=O)c2ccc(Cc3cc4c(cc3C)CCCC4(C)C)o2)c(OC)n1 [Example E1, 5-(3,8,8-Trimethyl-5,6,7,8-tetrahydro-naphthalen-2-ylmethyl)-furan-2-carboxylic acid [4,6-dimethoxy-2-(2-methoxy-ethoxy)-pyrimidin-5-yl]-amide] | 3.4 | 7 | 2 (≈ 3.92 µM) | 28 | 0 | 48 | 76 | 12 | – | – | – | – | – | – |
| COc1nc(NCCCN2CCOCC2)nc(OC)c1NC(=O)c1ccc(Cc2cc3c(cc2C)CCCC3(C)C)o1 [Example F1, 5-(3,8,8-Trimethyl-5,6,7,8-tetrahydro-naphthalen-2-ylmethyl)-furan-2-carboxylic acid [4,6-dimethoxy-2-(3-morpholin-4-yl-propylamino)-pyrimidin-5-yl]-amide] | 0.91 | 0.35 | 12 (≈ 20.8 µM) | 31 | 0 | 39 | 81 | 36 | – | – | – | – | – | – |
| COc1nc(NCCC#N)nc(OC)c1NC(=O)c1ccc(Cc2cc3c(cc2C)CCCC3(C)C)o1 [Example F2, 5-(3,8,8-Trimethyl-5,6,7,8-tetrahydro-naphthalen-2-ylmethyl)-furan-2-carboxylic acid [2-(2-cyano-ethylamino)-4,6-dimethoxy-pyrimidin-5-yl]-amide] | 1.3 | 1.7 | – | 85 | 2 | 70 | 100 | 74 | 100 | – | – | – | – | – |
